Assay: Body weight evolution, apparent toxicity during the efficacy experiment
Format: in vivo, NMRI nude mice
Conditions: 48.15 μmol/kg i.v. Q1D5; course of experiment 80 days
Protocol: Animal experiments were performed according to ethical guidelines of animal experimentation. The day of the first injection (6 days after the graft), mice were randomized in 7 groups. Mice were treated by intravenous injection in the lateral tail vein at a constant volume of 10 microL/g. Groups were as follows:
During the course of experiment body weight and tumor size were controlled every 2 or 3 days (except weekends). […] Mortality of animals was recorded every day except the weekend.
During the efficacy experiment, body weight was monitored twice weekly. Treatment toxicity was assessed based on clinical signs and body weight evolution.

Question: For `CCc1c2c(nc3ccc(OC(=O)N4CCC(N5CCCCC5)CC4)cc13)-c1cc3c(c(=O)n1C2)COC(=O)[C@]3(O)CC` [irinotecan, Irinotecan], which body weight loss is on record?
Answer: ~20%

— US20130137644A1, “CELL PENETRATING PEPTIDE CONJUGATES FOR DELIVERING OF NUCLEIC ACIDS INTO A CELL” (priority 2005, published 2013)
